Data taken from publication PMC11992225, “Antibacterial compounds against non-growing and intracellular bacteria” (npj Antimicrobials and Resistance, 2025).
Values after ≈ are worked out from the molar mass of the structure shown. Values joined by “and” are separate entries in the source; they are usually repeats but may differ in a detail not shown here. Equal entries are not always repeated.

How the values were obtained:
non-growing UPEC CFT073 [1] = assay: Dilution-regrowth assay (screen, hit validation, dose-response) on stationary-phase UPEC; assay type: cell-based, Escherichia coli; conditions: OD600 at 6h or 8h
How it was run: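 Regrowth (OD600 after 6 h, 37 °C) of diluted non-growing CFT073, following 24 h compound treatment of 24 h stationary cultures, defines activity relative to untreated control. Screen at 20 µM, validation at 20, 10, 5 µM (duplicates), dose–response in three biological replicates fitted by five-parameter logistic.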

[2] = system: non-growing P. aeruginosa DSM1117; assay: Dose-dependent killing analysis (CFU spot-plating) of stationary-phase P. aeruginosa; assay type: cell-based, Pseudomonas aeruginosa; conditions: for Killing: average Δlog10(CFU/ml) / log10(CFU/ml) after treatment, single replicates: P. aeruginosa; for Killing: average Δlog10(CFU/ml): vs 8.887 before treatment
How it was run: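 Stationary-phase P. aeruginosa DSM1117 treated for 24 h in 1:4 CA-MHB, pH 7.4, across compound doses. Survivors counted after 10-fold PBS dilution, spot-plating on LB agar and overnight growth at 37 °C; three biological replicates.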

S. aureus DSM2569 = assay: MIC, standard microdilution assay, growing S. aureus; assay type: cell-based, Staphylococcus aureus; conditions: Staphylococcus aureus, DSM2569; S. aureus; CA-MHB pH 7.4; read-out: MIC (μM) CA-MHB
How it was run: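 Broth microdilution was used throughout. UPEC, P. aeruginosa and S. aureus were tested in CA-MHB buffered with 40 mM HEPES (pH 7.4); UPEC was additionally tested in LPM with 30 mM MES (pH 5.5). S. flexneri was grown in TSB. All determinations were run in triplicate.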

[3] = system: non-growing S. aureus DSM2569; assay: Dose-dependent killing analysis (CFU spot-plating) of stationary-phase S. aureus; assay type: cell-based, Staphylococcus aureus; conditions: S. aureus; for Killing: average Δlog10(CFU/ml): vs 9,097 before treatment
How it was run: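 Stationary-phase S. aureus DSM2569 was grown and treated for 24 h in 1:4 CA-MHB at pH 7.4. Treated samples were serially diluted 10-fold in PBS and spot-plated on LB agar, which was incubated overnight at 37 °C. Survivors were counted as CFU over three biological replicates.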

non-growing UPEC CFT073 [4] = assay: Dose-dependent killing analysis (CFU spot-plating) of stationary-phase UPEC; assay type: cell-based, Escherichia coli
How it was run: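 Non-growing (stationary-phase) UPEC CFT073 treated with compounds in 96-well format at 200 μl, then 10-fold serially diluted in PBS and 10 μl spots plated on LB agar. Plates incubated overnight at 37 °C; colonies counted at lowest resolvable dilution to give CFU. Three biological replicates.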

[5] = E. coli in 1:4 CA-MHB (pH 7.4), concentration 0.25
[6] = E. coli in 1:4 CA-MHB (pH 7.4), concentration 0.5
[7] = E. coli in 1:4 CA-MHB (pH 7.4), concentration 1
[8] = E. coli in 1:4 CA-MHB (pH 7.4), concentration 2.5
[9] = E. coli in 1:4 CA-MHB (pH 7.4), concentration 5
[10] = E. coli in 1:4 CA-MHB (pH 7.4), concentration 10
[11] = E. coli in LPM (pH 5.5), concentration 0.25
[12] = E. coli in LPM (pH 5.5), concentration 0.5
[13] = E. coli in LPM (pH 5.5), concentration 1
[14] = E. coli in LPM (pH 5.5), concentration 2.5
[15] = E. coli in LPM (pH 5.5), concentration 5
[16] = E. coli in LPM (pH 5.5), concentration 10

CO[C@H]1/C=C/O[C@@]2(C)Oc3c(C)c(O)c4c(c3C2=O)C2=NC3(CCN(CC(C)C)CC3)NC2=C(NC(=O)/C(C)=C\C=C\[C@H](C)[C@H](O)[C@@H](C)[C@@H](O)[C@@H](C)[C@H](OC(C)=O)[C@@H]1C)C4=O [Rifabutin]
Regrowth: OD600 after dilution into drug-free medium (mean) (non-growing UPEC CFT073 [1]; [5]): 0.656
Regrowth: OD600 after dilution into drug-free medium (mean) (non-growing UPEC CFT073 [1]; [6]): 0.633
Regrowth: OD600 after dilution into drug-free medium (mean) (non-growing UPEC CFT073 [1]; [7]): 0.623
Regrowth: OD600 after dilution into drug-free medium (mean) (non-growing UPEC CFT073 [1]; [8]): 0.617
Regrowth: OD600 after dilution into drug-free medium (mean) (non-growing UPEC CFT073 [1]; [9]): 0.605
Regrowth: OD600 after dilution into drug-free medium (mean) (non-growing UPEC CFT073 [1]; [10]): 0.612
Regrowth: OD600 after dilution into drug-free medium (mean) (non-growing UPEC CFT073 [1]; [11]): 0.569
Regrowth: OD600 after dilution into drug-free medium (mean) (non-growing UPEC CFT073 [1]; [12]): 0.563
Regrowth: OD600 after dilution into drug-free medium (mean) (non-growing UPEC CFT073 [1]; [13]): 0.555
Regrowth: OD600 after dilution into drug-free medium (mean) (non-growing UPEC CFT073 [1]; [14]): 0.521
Regrowth: OD600 after dilution into drug-free medium (mean) (non-growing UPEC CFT073 [1]; [15]): 0.497
Regrowth: OD600 after dilution into drug-free medium (mean) (non-growing UPEC CFT073 [1]; [16]): 0.485
Killing: average Δlog10(CFU/ml) ([2]; concentration 0.1): 0.484 log10(CFU/ml)
log10(CFU/ml) after treatment, single replicates ([2]; concentration 0.25): 8.477 log10(CFU/ml) and 8.954 log10(CFU/ml) and 7.778 log10(CFU/ml)
Killing: average Δlog10(CFU/ml) ([2]; concentration 0.5): 0.158 log10(CFU/ml)
Killing: average Δlog10(CFU/ml) ([2]; concentration 2.5): 4.469 log10(CFU/ml)
log10(CFU/ml) after treatment, single replicates ([2]; printed on the line of concentration 1): 8.301 log10(CFU/ml) and 9.041 log10(CFU/ml) and 8.845 log10(CFU/ml)
log10(CFU/ml) after treatment, single replicates ([2]; printed on the line of concentration 5): 4.477 log10(CFU/ml) and 4.778 log10(CFU/ml) and =<4 log10(CFU/ml)
reduction of bacterial counts, non-growing P. aeruginosa ([2]; at 2.5 µM, 1:4 CA-MHB pH 7.4, 24 h treatment): more than four
killing of non-growing P. aeruginosa ([2]; at 2.5 µM, 24 h treatment): > 4 log10
MIC (S. aureus DSM2569): 0.025 µM (≈ 0.0212 µg/mL)
log10(CFU/ml) after treatment, single replicates ([3]; concentration 0.1): 8.833 log10(CFU/ml) and 8.875 log10(CFU/ml) and 8.763 log10(CFU/ml)
Killing: average Δlog10(CFU/ml) ([3]; concentration 0.1): 0.273 log10(CFU/ml)
log10(CFU/ml) after treatment, single replicates ([3]; concentration 0.5): 8.869 log10(CFU/ml) and 8.996 log10(CFU/ml) and 8.079 log10(CFU/ml)
Killing: average Δlog10(CFU/ml) ([3]; concentration 0.5): 0.449 log10(CFU/ml)
log10(CFU/ml) after treatment, single replicates ([3]; concentration 2.5): 8.763 log10(CFU/ml) and 8.785 log10(CFU/ml) and 8.643 log10(CFU/ml)
Killing: average Δlog10(CFU/ml) ([3]; concentration 2.5): 0.366 log10(CFU/ml)
log10(CFU/ml) after treatment, single replicates ([3]; concentration 10): 8.778 log10(CFU/ml) and 8.806 log10(CFU/ml) and 8.756 log10(CFU/ml)
Killing: average Δlog10(CFU/ml) ([3]; concentration 10): 0.317 log10(CFU/ml)
bactericidal activity against non-growing UPEC (CFU counting) (non-growing UPEC CFT073 [4]; 24 h treatment of stationary phase culture): did not kill
log10(CFU/ml) after treatment, single replicates (non-growing UPEC CFT073 [4]; [5]): 9.000 log10(CFU/ml) (2×) and 8.699 log10(CFU/ml)
Killing: average Δlog10(CFU/ml) (non-growing UPEC CFT073 [4]; E. coli in 1:4 CA-MHB (pH 7.4), concentration 0.25, vs 8.977 before treatment): 0.078 log10(CFU/ml)
log10(CFU/ml) after treatment, single replicates (non-growing UPEC CFT073 [4]; [6]): 9.230 log10(CFU/ml) and 8.532 log10(CFU/ml) and 8.699 log10(CFU/ml)
Killing: average Δlog10(CFU/ml) (non-growing UPEC CFT073 [4]; E. coli in 1:4 CA-MHB (pH 7.4), concentration 0.5, vs 8.977 before treatment): 0.157 log10(CFU/ml)
log10(CFU/ml) after treatment, single replicates (non-growing UPEC CFT073 [4]; [7]): 9.322 log10(CFU/ml) and 8.477 log10(CFU/ml) and 8.301 log10(CFU/ml)
Killing: average Δlog10(CFU/ml) (non-growing UPEC CFT073 [4]; E. coli in 1:4 CA-MHB (pH 7.4), concentration 1, vs 8.977 before treatment): 0.277 log10(CFU/ml)
log10(CFU/ml) after treatment, single replicates (non-growing UPEC CFT073 [4]; [8]): 8.699 log10(CFU/ml) and 8.505 log10(CFU/ml) and 8.000 log10(CFU/ml)
Killing: average Δlog10(CFU/ml) (non-growing UPEC CFT073 [4]; E. coli in 1:4 CA-MHB (pH 7.4), concentration 2.5, vs 8.977 before treatment): 0.576 log10(CFU/ml)
log10(CFU/ml) after treatment, single replicates (non-growing UPEC CFT073 [4]; [9]): 9.041 log10(CFU/ml) and 8.447 log10(CFU/ml) and 9.000 log10(CFU/ml)
Killing: average Δlog10(CFU/ml) (non-growing UPEC CFT073 [4]; E. coli in 1:4 CA-MHB (pH 7.4), concentration 5, vs 8.977 before treatment): 0.148 log10(CFU/ml)
log10(CFU/ml) after treatment, single replicates (non-growing UPEC CFT073 [4]; [10]): 8.903 log10(CFU/ml) and 8.176 log10(CFU/ml) and 8.415 log10(CFU/ml)
Killing: average Δlog10(CFU/ml) (non-growing UPEC CFT073 [4]; E. coli in 1:4 CA-MHB (pH 7.4), concentration 10, vs 8.977 before treatment): 0.479 log10(CFU/ml)
log10(CFU/ml) after treatment, single replicates (non-growing UPEC CFT073 [4]; [11]): 6.954 log10(CFU/ml) and 6.415 log10(CFU/ml) and 7.954 log10(CFU/ml)
Killing: average Δlog10(CFU/ml) (non-growing UPEC CFT073 [4]; E. coli in LPM (pH 5.5), concentration 0.25, vs 7.350 before treatment): 0.243 log10(CFU/ml)
log10(CFU/ml) after treatment, single replicates (non-growing UPEC CFT073 [4]; [12]): 7.000 log10(CFU/ml) and 6.778 log10(CFU/ml) and 7.663 log10(CFU/ml)
Killing: average Δlog10(CFU/ml) (non-growing UPEC CFT073 [4]; E. coli in LPM (pH 5.5), concentration 0.5, vs 7.350 before treatment): 0.203 log10(CFU/ml)
log10(CFU/ml) after treatment, single replicates (non-growing UPEC CFT073 [4]; [13]): 6.954 log10(CFU/ml) and 6.398 log10(CFU/ml) and 7.681 log10(CFU/ml)
Killing: average Δlog10(CFU/ml) (non-growing UPEC CFT073 [4]; E. coli in LPM (pH 5.5), concentration 1, vs 7.350 before treatment): 0.339 log10(CFU/ml)
log10(CFU/ml) after treatment, single replicates (non-growing UPEC CFT073 [4]; [14]): 7.322 log10(CFU/ml) and 6.845 log10(CFU/ml) and 7.623 log10(CFU/ml)
Killing: average Δlog10(CFU/ml) (non-growing UPEC CFT073 [4]; E. coli in LPM (pH 5.5), concentration 2.5, vs 7.350 before treatment): 0.087 log10(CFU/ml)
log10(CFU/ml) after treatment, single replicates (non-growing UPEC CFT073 [4]; [15]): 6.477 log10(CFU/ml) and 6.845 log10(CFU/ml) and 7.462 log10(CFU/ml)
Killing: average Δlog10(CFU/ml) (non-growing UPEC CFT073 [4]; E. coli in LPM (pH 5.5), concentration 5, vs 7.350 before treatment): 0.422 log10(CFU/ml)
log10(CFU/ml) after treatment, single replicates (non-growing UPEC CFT073 [4]; [16]): 7.114 log10(CFU/ml) and 6.954 log10(CFU/ml) and 7.633 log10(CFU/ml)
Killing: average Δlog10(CFU/ml) (non-growing UPEC CFT073 [4]; E. coli in LPM (pH 5.5), concentration 10, vs 7.350 before treatment): 0.116 log10(CFU/ml)
